{"source": "patent US12350279B2", "about": "“Nasal rinse compositions and methods” (Campbell Holding Company LLC, priority 2022, dated 2025)", "origin": "cited, not measured here", "key": {"[1]": {"system": "allergic asthma animal model"}, "[2]": {"conditions": "animal models"}, "[3]": {"system": "animal models of chronic asthma"}}, "data": [{"smiles": "C=C(C)[C@@H]1CCC(C)=C[C@H]1c1c(O)cc(CCCCC)cc1O", "note": "[CBD, Cannabidiol]", "values": [{"measurement": "effect on inflammatory and remodeling process, airway hyperreactivity", "setting": "[1]", "result": "reduced the inflammatory and remodeling process with decreased airway hyperreactivity"}, {"measurement": "time to absorption after intranasal application", "setting": "[2]", "result": "≤ 10", "unit": "min"}, {"measurement": "effect on cytokines", "setting": "[3]", "result": "reduce relevant cytokines"}]}]}
